Test results taken from patent US7880007B2, “Bicyclic substituted phenyl piperidine modulators of muscarinic receptors” (Vertex Pharmaceuticals Incorporated, priority 2004, dated 2011).

Experiments:
Format in all cases: cell-based
[1] = molecular target: T1, M2 muscarinic receptor (Homo sapiens, UniProt P08172); assay: Functional mobilization of intracellular calcium (FLIPR), M2-CHO cells; details: for Emax: 100% efficacy = maximum response obtained with the Carbachol control; for M2 Activity: M2-CHO cells, calcium mobilization (FLIPR)
T1 construct: expressed in transfected cells; host or cells: CHO (M2-CHO)
T1 sequence (P08172 1-466): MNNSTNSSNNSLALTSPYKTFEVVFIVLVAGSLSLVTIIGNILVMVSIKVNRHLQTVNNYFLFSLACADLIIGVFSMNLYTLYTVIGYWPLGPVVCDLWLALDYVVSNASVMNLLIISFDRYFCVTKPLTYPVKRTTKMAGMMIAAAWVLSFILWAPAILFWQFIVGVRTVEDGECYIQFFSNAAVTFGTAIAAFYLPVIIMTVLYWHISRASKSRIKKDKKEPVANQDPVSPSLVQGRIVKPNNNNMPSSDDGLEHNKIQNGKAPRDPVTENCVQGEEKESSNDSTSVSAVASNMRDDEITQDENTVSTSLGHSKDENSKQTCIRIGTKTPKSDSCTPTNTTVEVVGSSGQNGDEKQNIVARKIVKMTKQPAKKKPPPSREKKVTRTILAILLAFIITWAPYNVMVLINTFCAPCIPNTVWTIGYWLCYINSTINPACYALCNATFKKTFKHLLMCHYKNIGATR
Method in brief: (§1)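 Calcium mobilisation read by FLIPR over 60 s (ex 488/em 540 nm) in recombinant muscarinic CHO lines loaded with calcium dye plus 1 mM probenecid. Compounds tested as agonists alone, or as inhibitors against EC80 carbachol after 15 min pre-incubation or co-addition; 0.5% DMSO; efficacy scaled to carbachol maximal response.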

[2] = molecular target: T2, M4 muscarinic receptor (Homo sapiens, UniProt P08173); assay: Functional mobilization of intracellular calcium (FLIPR), M4-CHO cells; details: for Emax: 100% efficacy = maximum response obtained with the Carbachol control; for M4 Activity: M4-CHO cells, calcium mobilization (FLIPR)
T2 construct: expressed in transfected cells; host or cells: CHO (M4-CHO)
T2 sequence (P08173 1-479): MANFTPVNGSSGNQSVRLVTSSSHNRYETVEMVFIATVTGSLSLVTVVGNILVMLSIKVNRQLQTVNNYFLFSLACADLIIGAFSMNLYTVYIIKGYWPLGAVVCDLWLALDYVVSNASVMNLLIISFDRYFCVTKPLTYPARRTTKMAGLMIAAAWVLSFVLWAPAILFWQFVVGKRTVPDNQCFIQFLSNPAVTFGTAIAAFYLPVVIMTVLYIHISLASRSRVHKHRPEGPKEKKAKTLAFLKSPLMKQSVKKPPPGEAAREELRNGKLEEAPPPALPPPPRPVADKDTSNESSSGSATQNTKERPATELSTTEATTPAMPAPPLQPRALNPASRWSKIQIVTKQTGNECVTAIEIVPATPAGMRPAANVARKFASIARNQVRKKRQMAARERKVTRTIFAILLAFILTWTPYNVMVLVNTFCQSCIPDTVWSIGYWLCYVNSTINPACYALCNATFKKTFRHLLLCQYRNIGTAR
Method in brief: as §1

[3] = molecular target: T3, M1 muscarinic receptor (Homo sapiens, UniProt P11229); assay: Functional mobilization of intracellular calcium (FLIPR), M1-CHO cells; details: for Emax: 100% efficacy = maximum response obtained with the Carbachol control; for M1 Activity: M1-CHO cells, calcium mobilization (FLIPR)
T3 construct: expressed in transfected cells; host or cells: CHO (M1-CHO)
T3 sequence (P11229 1-460): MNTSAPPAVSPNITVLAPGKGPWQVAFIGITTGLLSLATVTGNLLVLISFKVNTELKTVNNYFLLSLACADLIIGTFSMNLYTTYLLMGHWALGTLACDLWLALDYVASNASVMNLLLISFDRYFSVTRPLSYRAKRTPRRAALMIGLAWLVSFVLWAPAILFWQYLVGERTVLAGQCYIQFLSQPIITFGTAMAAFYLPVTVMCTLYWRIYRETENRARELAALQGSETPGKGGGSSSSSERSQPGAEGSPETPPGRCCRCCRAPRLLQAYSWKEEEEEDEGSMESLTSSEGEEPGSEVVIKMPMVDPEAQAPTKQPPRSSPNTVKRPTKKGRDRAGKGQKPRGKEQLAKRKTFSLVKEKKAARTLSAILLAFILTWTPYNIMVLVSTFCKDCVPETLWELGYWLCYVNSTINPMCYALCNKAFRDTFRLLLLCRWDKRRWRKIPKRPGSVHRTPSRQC
Method in brief: as §1

[4] = molecular target: T4, M3 muscarinic receptor (Homo sapiens, UniProt P20309); assay: Functional mobilization of intracellular calcium (FLIPR), M3-CHO cells; details: for Emax: 100% efficacy = maximum response obtained with the Carbachol control; for M3 Activity: M3-CHO cells, calcium mobilization (FLIPR)
T4 construct: expressed in transfected cells; host or cells: CHO (M3-CHO)
T4 sequence (P20309 whole entry): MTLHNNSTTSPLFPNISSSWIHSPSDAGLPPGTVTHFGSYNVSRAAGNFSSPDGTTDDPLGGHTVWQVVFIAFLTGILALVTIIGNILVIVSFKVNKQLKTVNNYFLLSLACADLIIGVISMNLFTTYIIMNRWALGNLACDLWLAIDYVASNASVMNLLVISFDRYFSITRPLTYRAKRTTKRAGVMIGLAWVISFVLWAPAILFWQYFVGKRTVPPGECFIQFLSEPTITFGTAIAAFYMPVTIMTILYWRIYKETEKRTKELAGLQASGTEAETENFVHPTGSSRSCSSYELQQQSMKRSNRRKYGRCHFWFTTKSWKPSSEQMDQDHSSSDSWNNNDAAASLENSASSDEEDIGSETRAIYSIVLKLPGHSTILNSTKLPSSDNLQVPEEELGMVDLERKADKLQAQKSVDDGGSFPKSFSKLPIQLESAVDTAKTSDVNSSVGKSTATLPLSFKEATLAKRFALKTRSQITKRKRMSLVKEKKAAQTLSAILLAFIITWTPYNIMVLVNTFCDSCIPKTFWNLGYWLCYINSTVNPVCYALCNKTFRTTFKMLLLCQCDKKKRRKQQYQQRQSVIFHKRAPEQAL
Method in brief: as §1

Row | Structure (SMILES) | Emax [1] | Emax [2] | Emax [3] | Emax [4] | M2 Activity [1] | M4 Activity [2] | M1 Activity [3] | M3 Activity [4]
1 | COc1ccccc1C1CCN(C2CCC3CCCCC3C2)CC1 (centres unmarked) [Compound 255] | < 25% | 25 to 100% | 25 to 100% | 25 to 100% | + (activity was measured to be greater than 5.0 μM) | ++ (activity was measured to be from 1.0 μM to 5.0 μM) | + (activity was measured to be greater than 5.0 μM) | + (activity was measured to be greater than 5.0 μM)
2 | COc1ccc(Cl)cc1C1(F)CCN(CC2CCCCC2)CC1 [Compound 257] | < 25% | 25 to 100% | < 25% | < 25% | + (activity was measured to be greater than 5.0 μM) | + (activity was measured to be greater than 5.0 μM) | + (activity was measured to be greater than 5.0 μM) | + (activity was measured to be greater than 5.0 μM)
3 | CCS(=O)(=O)c1ccc(-c2ccc(OC)c(C3CCN([C@H]4C[C@H]5CC[C@H]4C5)CC3)c2)cc1 [Compound 258] | < 25% | 25 to 100% | 25 to 100% | < 25% | + (activity was measured to be greater than 5.0 μM) | ++ (activity was measured to be from 1.0 μM to 5.0 μM) | + (activity was measured to be greater than 5.0 μM) | + (activity was measured to be greater than 5.0 μM)
4 | Fc1ccccc1C1CCN(C2C[C@H]3CC[C@H]2C3)CC1 (some centres unmarked) [Compound 259] | < 25% | 25 to 100% | 25 to 100% | < 25% |  |  |  | 
5 | CCc1ccc(OC)c(C2CCN([C@@H]3C[C@H]4CC[C@H]3C4)CC2)c1 [Compound 260] | < 25% | 25 to 100% | 25 to 100% | < 25% | + (activity was measured to be greater than 5.0 μM) | +++ (activity was measured to be less than 1.0 μM) | +++ (activity was measured to be less than 1.0 μM) | + (activity was measured to be greater than 5.0 μM)
6 | Cc1ccc(C(F)(F)F)cc1C1CCN(C2C[C@H]3CC[C@H]2C3)CC1 (some centres unmarked) [Compound 261] | 25 to 100% | 25 to 100% | 25 to 100% | < 25% | + (activity was measured to be greater than 5.0 μM) | ++ (activity was measured to be from 1.0 μM to 5.0 μM) | +++ (activity was measured to be less than 1.0 μM) | + (activity was measured to be greater than 5.0 μM)
7 | CCOC(=O)N1CCC(N2CCC(F)(c3cc(F)ccc3OC)CC2)CC1 [Compound 262] | < 25% | 25 to 100% | 25 to 100% | < 25% | + (activity was measured to be greater than 5.0 μM) | +++ (activity was measured to be less than 1.0 μM) | +++ (activity was measured to be less than 1.0 μM) | + (activity was measured to be greater than 5.0 μM)
8 | COc1ccc(-c2ccc(CC#N)cc2)cc1C1CCN(C2CCOCC2)CC1 [Compound 263] | < 25% | < 25% | < 25% | < 25% | + (activity was measured to be greater than 5.0 μM) | + (activity was measured to be greater than 5.0 μM) | + (activity was measured to be greater than 5.0 μM) | + (activity was measured to be greater than 5.0 μM)
9 | CCOC(=O)N1C2CCC1CC(N1CCC(c3cc(-c4ccc(C(=O)NC)cc4)ccc3OC)CC1)C2 (centres unmarked) [Compound 270] | < 25% | 25 to 100% | 25 to 100% | < 25% | + (activity was measured to be greater than 5.0 μM) | +++ (activity was measured to be less than 1.0 μM) | +++ (activity was measured to be less than 1.0 μM) | + (activity was measured to be greater than 5.0 μM)

Further lines, with some results ahead:

Row | Emax [1] | Emax [2] | Emax [3] | Emax [4] | Structure (SMILES) | M2 Activity [1] | M4 Activity [2] | M1 Activity [3] | M3 Activity [4]
10 | < 25% | 25 to 100% | 25 to 100% | < 25% | CCOC(=O)N1CCC(CN2CCC(c3cc(C#N)ccc3OC)CC2)CC1 [Compound 264] | + (activity was measured to be greater than 5.0 μM) | +++ (activity was measured to be less than 1.0 μM) | +++ (activity was measured to be less than 1.0 μM) | + (activity was measured to be greater than 5.0 μM)
11 | < 25% | 25 to 100% | 25 to 100% | < 25% | COc1ccccc1C1CCN(C2CCC(C)C2)CC1 (centres unmarked) [Compound 265] | + (activity was measured to be greater than 5.0 μM) | +++ (activity was measured to be less than 1.0 μM) | + (activity was measured to be greater than 5.0 μM) | + (activity was measured to be greater than 5.0 μM)
12 | < 25% | 25 to 100% | < 25% | < 25% | COc1ccccc1C1CCN(C2CCN(C(C)=O)CC2)CC1 [Compound 266] | + (activity was measured to be greater than 5.0 μM) | ++ (activity was measured to be from 1.0 μM to 5.0 μM) | + (activity was measured to be greater than 5.0 μM) | + (activity was measured to be greater than 5.0 μM)
13 | < 25% | 25 to 100% | 25 to 100% | < 25% | COc1ccc(-c2ccc(F)cc2)cc1C1CCN([C@H]2C[C@H]3CC[C@H]2C3)CC1 [Compound 267] | + (activity was measured to be greater than 5.0 μM) | + (activity was measured to be greater than 5.0 μM) | + (activity was measured to be greater than 5.0 μM) | + (activity was measured to be greater than 5.0 μM)
14 | 25 to 100% | 25 to 100% | 25 to 100% | < 25% | COc1ccc(-c2ccc(S(C)(=O)=O)cc2)cc1C1CCN(C2CCCCC2)CC1 [Compound 268] | + (activity was measured to be greater than 5.0 μM) | ++ (activity was measured to be from 1.0 μM to 5.0 μM) | + (activity was measured to be greater than 5.0 μM) | + (activity was measured to be greater than 5.0 μM)
15 | < 25% | 25 to 100% | 25 to 100% | < 25% | O=C(COc1ccccc1C1CCN([C@H]2C[C@H]3CC[C@H]2C3)CC1)c1ccccc1 [Compound 269] | + (activity was measured to be greater than 5.0 μM) | +++ (activity was measured to be less than 1.0 μM) | + (activity was measured to be greater than 5.0 μM) | + (activity was measured to be greater than 5.0 μM)
